Assay results taken from the supplement of paper PMC11451515.

Tested on: SEM cells
Test: cell viability relative to DMSO control; higher = less cytotoxic
Details: 48 h
Method in brief: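 Viability is a per-plate percentage relative to DMSO wells, with cell-free wells as background. CellTiter-Glo One luminescence was read after 48 h at 37°C on 1536-well plates (5 μl) of NOMO1 or SEM (500 cells/well) or P12-Ichikawa (1000 cells/well) leukemia cells. The cells had been adapted for at least four passages in each medium and pin-dosed with library compounds in DMSO from 47 μM to 0.79 nM in 11 threefold steps.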

[1] = RPMI 5 mM glucose + 10% FBS, 0.000781 µM
[2] = RPMI 5 mM glucose + 10% FBS, 0.00234 µM
[3] = RPMI 5 mM glucose + 10% FBS, 0.00702 µM
[4] = RPMI 5 mM glucose + 10% FBS, 0.0211 µM
[5] = RPMI 5 mM glucose + 10% FBS, 0.0632 µM
[6] = RPMI 5 mM glucose + 10% FBS, 0.19 µM
[7] = RPMI 5 mM glucose + 10% FBS, 0.569 µM
[8] = RPMI 5 mM glucose + 10% FBS, 1.71 µM
[9] = RPMI 5 mM glucose + 10% FBS, 5.12 µM
[10] = RPMI 5 mM glucose + 10% FBS, 15.4 µM
[11] = RPMI 5 mM glucose + 10% FBS, 46.1 µM
[12] = HPLM + 10% dialyzed FBS, 0.000781 µM
[13] = HPLM + 10% dialyzed FBS, 0.00234 µM
[14] = HPLM + 10% dialyzed FBS, 0.00702 µM
[15] = HPLM + 10% dialyzed FBS, 0.0211 µM
[16] = HPLM + 10% dialyzed FBS, 0.0632 µM
[17] = HPLM + 10% dialyzed FBS, 0.19 µM
[18] = HPLM + 10% dialyzed FBS, 0.569 µM
[19] = HPLM + 10% dialyzed FBS, 1.71 µM
[20] = HPLM + 10% dialyzed FBS, 5.12 µM
[21] = HPLM + 10% dialyzed FBS, 15.4 µM
[22] = HPLM + 10% dialyzed FBS, 46.1 µM
[23] = RPMI 5 mM glucose + 10% dialyzed FBS, 0.000781 µM
[24] = RPMI 5 mM glucose + 10% dialyzed FBS, 0.00234 µM
[25] = RPMI 5 mM glucose + 10% dialyzed FBS, 0.00702 µM
[26] = RPMI 5 mM glucose + 10% dialyzed FBS, 0.0211 µM
[27] = RPMI 5 mM glucose + 10% dialyzed FBS, 0.0632 µM
[28] = RPMI 5 mM glucose + 10% dialyzed FBS, 0.19 µM
[29] = RPMI 5 mM glucose + 10% dialyzed FBS, 0.569 µM
[30] = RPMI 5 mM glucose + 10% dialyzed FBS, 1.71 µM
[31] = RPMI 5 mM glucose + 10% dialyzed FBS, 5.12 µM
[32] = RPMI 5 mM glucose + 10% dialyzed FBS, 15.4 µM
[33] = RPMI 5 mM glucose + 10% dialyzed FBS, 46.1 µM

Structure (SMILES) | cell viability [1] [%] | cell viability [2] [%] | cell viability [3] [%] | cell viability [4] [%] | cell viability [5] [%] | cell viability [6] [%] | cell viability [7] [%] | cell viability [8] [%] | cell viability [9] [%] | cell viability [10] [%] | cell viability [11] [%] | cell viability [12] [%] | cell viability [13] [%] | cell viability [14] [%] | cell viability [15] [%] | cell viability [16] [%] | cell viability [17] [%] | cell viability [18] [%] | cell viability [19] [%] | cell viability [20] [%] | cell viability [21] [%] | cell viability [22] [%] | cell viability [23] [%] | cell viability [24] [%] | cell viability [25] [%] | cell viability [26] [%] | cell viability [27] [%] | cell viability [28] [%] | cell viability [29] [%] | cell viability [30] [%] | cell viability [31] [%] | cell viability [32] [%] | cell viability [33] [%]
O=C(NCCCCN1CCOCC1)c1cc2ccccc2o1 | 102 | 122 | 112 | 123 | 121 | 114 | 96.6 | 93.6 | 99.9 | 92.8 | 98.4 |  |  |  |  |  |  |  |  |  |  |  |  |  |  |  |  |  |  |  |  |  | 
C=C1C(=O)OC(CCCCCCCC)C1C(=O)O (configuration not stated) | 97.5 | 99.9 | 111 | 106 | 102 | 119 | 108 | 113 | 14.1 | 125 | 113 | 97.2 | 108 | 106 | 118 | 108 | 105 | 111 | 107 | 90.6 | 125 | 113 | 111 | 98.2 | 111 | 126 | 120 | 128 | 125 | 117 | 84.3 | 121 | 121
OC1=CC=C(C=C1)\C2=C\OC3=C(C(=CC(=C3)O)O)C2=O | 93.1 | 82.2 | 89.8 | 86 | 91 | 95.7 | 94.2 | 56.6 | 91.9 | 72.7 | 36.2 | 95.4 | 109 | 96.8 | 105 | 108 | 119 | 112 | 79.1 | 105 | 102 | 74.8 | 94.5 | 103 | 104 | 102 | 119 | 115 | 115 | 65.1 | 92.6 | 101 | 59
CC(=O)N[C@@H]1[C@@H](NC(N)=N)\C=C(/O[C@H]1[C@H](O)[C@H](O)CO)C(O)=O | 80.1 | 90.1 | 125 | 98.6 | 89 | 129 | 49.5 | 128 | 136 | 119 | 110 | 78.4 | 89.6 | 98.1 | 107 | 107 | 123 | 40.2 | 106 | 112 | 98.6 | 95.4 | 64.5 | 82.9 | 117 | 102 | 126 | 122 | 38.4 | 120 | 121 | 110 | 113
COc1cc([C@@H](CC(=O)O)c2ccc(C)c(CN3C[C@@H](C)Oc4ccccc4[S+]3(=O)[O-])c2)cc2nnn(C)c12 | 115 | 111 | 133 | 134 | 87 | 82.6 | 83.7 | 96.6 | 67.5 | 18.1 | 14.5 | 97.2 | 104 | 104 | 108 | 106 | 103 | 108 | 102 | 87 | 88.4 | 70.2 | 116 | 116 | 110 | 104 | 104 | 78.5 | 83.2 | 89.7 | 74.3 | 64.4 | 53.9
N[S+](=O)([O-])c1cc2c(cc1Cl)NC(C(Cl)Cl)N[S+]2(=O)[O-] (configuration not stated) | 103 | 110 | 90.3 | 107 | 114 | 113 | 122 | 123 | 115 | 129 | 109 | 89 | 95.6 | 98.8 | 86.3 | 105 | 103 | 102 | 91.5 | 111 | 116 | 111 | 95.1 | 108 | 113 | 102 | 124 | 122 | 121 | 132 | 142 | 106 | 125
CC1=C(/C=C/C(C)=C/C=C/C(C)=C\C(=O)O)C(C)(C)CCC1 | 85 | 93.2 | 77.5 | 112 | 99.5 | 107 | 108 | 107 | 46.1 | 98.2 | 106 | 82.8 | 84.8 | 67.9 | 103 | 98.1 | 96.7 | 101 | 91.5 | 44.3 | 80.1 | 78.5 | 68.1 | 78.3 | 64.2 | 93.2 | 95.3 | 107 | 83.4 | 75.8 | 41.6 | 77.8 | 85.8
COc1cc(Nc2c(C#N)cnc3cc(OCCCN4CCN(C)CC4)c(OC)cc23)c(Cl)cc1Cl | 72.5 | 68.2 | 75.7 | 74.8 | 73.1 | 84.7 | 68.1 | 44 | 7.02 | 3.9 | 4.3 | 87.1 | 96.8 | 114 | 113 | 111 | 95 | 109 | 54.6 | 13 | 5.77 | 6.12 | 95.9 | 89.4 | 103 | 105 | 96.1 | 98 | 100 | 62.1 | 17.5 | 5.92 | 5.77
